Test results: publication PMC6904270, “A High-Throughput Assay for Monitoring Ubiquitination in Real Time” (Frontiers in Chemistry, 2019)

Biological target: T1, E1 ubiquitin-activating enzyme (UBE1) (Homo sapiens, UniProt P22314)
T1 construct: gene UBA1
T1 sequence (P22314 2-1058): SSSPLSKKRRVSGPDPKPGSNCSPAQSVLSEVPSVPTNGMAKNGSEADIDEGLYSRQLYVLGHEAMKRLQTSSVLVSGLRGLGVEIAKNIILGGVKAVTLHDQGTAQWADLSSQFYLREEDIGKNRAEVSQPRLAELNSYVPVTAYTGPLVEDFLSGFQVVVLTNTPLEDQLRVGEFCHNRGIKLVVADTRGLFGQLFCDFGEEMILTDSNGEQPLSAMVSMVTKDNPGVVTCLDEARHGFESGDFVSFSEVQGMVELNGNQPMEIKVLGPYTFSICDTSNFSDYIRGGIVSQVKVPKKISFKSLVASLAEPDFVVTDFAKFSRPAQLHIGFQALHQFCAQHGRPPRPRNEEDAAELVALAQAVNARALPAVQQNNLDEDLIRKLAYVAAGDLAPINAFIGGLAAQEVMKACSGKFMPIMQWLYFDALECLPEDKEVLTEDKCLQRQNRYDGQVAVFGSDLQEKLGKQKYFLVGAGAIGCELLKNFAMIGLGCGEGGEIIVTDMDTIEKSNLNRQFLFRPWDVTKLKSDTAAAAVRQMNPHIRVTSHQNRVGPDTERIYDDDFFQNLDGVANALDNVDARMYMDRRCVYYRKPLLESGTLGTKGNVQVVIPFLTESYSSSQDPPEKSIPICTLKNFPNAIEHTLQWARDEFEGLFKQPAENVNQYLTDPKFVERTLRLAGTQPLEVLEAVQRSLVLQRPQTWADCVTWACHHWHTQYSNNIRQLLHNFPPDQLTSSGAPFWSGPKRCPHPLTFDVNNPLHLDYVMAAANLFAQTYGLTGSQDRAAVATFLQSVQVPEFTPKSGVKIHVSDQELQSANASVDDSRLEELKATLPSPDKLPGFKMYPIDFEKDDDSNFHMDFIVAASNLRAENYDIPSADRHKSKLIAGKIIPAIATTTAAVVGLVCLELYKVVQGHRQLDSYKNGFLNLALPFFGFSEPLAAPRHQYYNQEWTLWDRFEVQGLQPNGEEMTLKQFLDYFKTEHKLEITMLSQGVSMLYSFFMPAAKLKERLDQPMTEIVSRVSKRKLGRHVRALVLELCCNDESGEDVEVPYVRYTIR
Assay: fluorescence polarization of E1~TAMRA-Ub complex formation with purified E1 (UbiReal), endpoint dose-response
Format: biochemical

SMILES: CCOC(=O)c1ccc(N2NC(=O)C(=Cc3ccc([N+](=O)[O-])o3)C2=O)cc1 [PYR-41]
- IC50: 9.15 µM
